Source: ChEMBL document CHEMBL1909570, “Synthesis and antibacterial activity of N4-mono alkyl derivatives of novel glycopeptide LYV07ww01” (2011)
≈ marks a conversion by molar mass, not a printed value.

Legend:
Type in all cases: functional
Streptococcus = assay: Antibacterial activity against Streptococcus gamma 32206 by CLSI agar microdilution method
Streptococcus pneumoniae = assay: Antibacterial activity against Streptococcus pneumoniae 31002 by CLSI agar microdilution method
[1] = system: Staphylococcus epidermidis; assay: Antibacterial activity against Staphylococcus epidermidis 26069 by CLSI agar microdilution method
Staphylococcus aureus = assay: Antibacterial activity against Staphylococcus aureus 26003 by CLSI agar microdilution method
Staphylococcus = assay: Antibacterial activity against Staphylococcus albus 26101 by CLSI agar microdilution method
Enterococcus faecium = assay: Antibacterial activity against Enterococcus faecium 32220 by CLSI agar microdilution method

Compound	MIC (Streptococcus) [µg/mL]	MIC (Streptococcus pneumoniae) [µg/mL]	MIC [1] [µg/mL]	MIC (Staphylococcus aureus) [µg/mL]	MIC (Staphylococcus) [µg/mL]	MIC (Enterococcus faecium) [µg/mL]
CN[C@H](CC(C)C)C(=O)N[C@H]1C(=O)N[C@@H](CC(N)=O)C(=O)N[C@H]2C(=O)N[C@H]3C(=O)N[C@H](C(=O)N[C@@H](C(=O)O)c4cc(O)cc(O)c4-c4cc3ccc4O)[C@H](O[C@H]3C[C@](C)(N)[C@H](O)[C@H](C)O3)c3ccc(c(Cl)c3)Oc3cc2cc(c3O[C@@H]2O[C@H](CO)[C@@H](O)[C@H](O)[C@H]2O[C@H]2C[C@](C)(NCc3ccc(Oc4ccc(OC)cc4)cc3)[C@H](O)[C@H](C)O2)Oc2ccc(cc2Cl)[C@H]1O	1.56 (≈ 0.864 µM)	1.56 (≈ 0.864 µM)	> 25	1.56 (≈ 0.864 µM)	3.13 (≈ 1.73 µM)	1.56 (≈ 0.864 µM)
CN[C@H](CC(C)C)C(=O)N[C@H]1C(=O)N[C@@H](CC(N)=O)C(=O)N[C@H]2C(=O)N[C@H]3C(=O)N[C@H](C(=O)N[C@@H](C(=O)O)c4cc(O)cc(O)c4-c4cc3ccc4O)[C@H](O[C@H]3C[C@](C)(N)[C@H](O)[C@H](C)O3)c3ccc(c(Cl)c3)Oc3cc2cc(c3O[C@@H]2O[C@H](CO)[C@@H](O)[C@H](O)[C@H]2O[C@H]2C[C@](C)(NCc3ccc(Oc4cccc(OC)c4)cc3)[C@H](O)[C@H](C)O2)Oc2ccc(cc2Cl)[C@H]1O	0.78 (≈ 0.432 µM)	3.13 (≈ 1.73 µM)	> 25	3.13 (≈ 1.73 µM)	3.13 (≈ 1.73 µM)	3.13 (≈ 1.73 µM)
CCCCCCCCOc1ccc(CN[C@@]2(C)C[C@H](O[C@H]3[C@H](Oc4c5cc6cc4Oc4ccc(cc4Cl)[C@@H](O[C@H]4C[C@](C)(N)[C@H](O)[C@H](C)O4)[C@@H]4NC(=O)[C@H](NC(=O)[C@@H]6NC(=O)[C@H](CC(N)=O)NC(=O)[C@H](NC(=O)[C@@H](CC(C)C)NC)[C@H](O)c6ccc(c(Cl)c6)O5)c5ccc(O)c(c5)-c5c(O)cc(O)cc5[C@H](C(=O)O)NC4=O)O[C@H](CO)[C@@H](O)[C@@H]3O)O[C@@H](C)[C@H]2O)cc1	6.25 (≈ 3.45 µM)	6.25 (≈ 3.45 µM)	> 25	12.5 (≈ 6.9 µM)	12.5 (≈ 6.9 µM)	12.5 (≈ 6.9 µM)
CCCCCCCCCOc1ccc(CN[C@@]2(C)C[C@H](O[C@H]3[C@H](Oc4c5cc6cc4Oc4ccc(cc4Cl)[C@@H](O[C@H]4C[C@](C)(N)[C@H](O)[C@H](C)O4)[C@@H]4NC(=O)[C@H](NC(=O)[C@@H]6NC(=O)[C@H](CC(N)=O)NC(=O)[C@H](NC(=O)[C@@H](CC(C)C)NC)[C@H](O)c6ccc(c(Cl)c6)O5)c5ccc(O)c(c5)-c5c(O)cc(O)cc5[C@H](C(=O)O)NC4=O)O[C@H](CO)[C@@H](O)[C@@H]3O)O[C@@H](C)[C@H]2O)cc1	12.5 (≈ 6.85 µM)	12.5 (≈ 6.85 µM)	> 25	12.5 (≈ 6.85 µM)	25 (≈ 13.7 µM)	12.5 (≈ 6.85 µM)
CCCCCN[C@@]1(C)C[C@H](O[C@H]2[C@H](Oc3c4cc5cc3Oc3ccc(cc3Cl)[C@@H](O[C@H]3C[C@](C)(N)[C@H](O)[C@H](C)O3)[C@@H]3NC(=O)[C@H](NC(=O)[C@@H]5NC(=O)[C@H](CC(N)=O)NC(=O)[C@H](NC(=O)[C@@H](CC(C)C)NC)[C@H](O)c5ccc(c(Cl)c5)O4)c4ccc(O)c(c4)-c4c(O)cc(O)cc4[C@H](C(=O)O)NC3=O)O[C@H](CO)[C@@H](O)[C@@H]2O)O[C@@H](C)[C@H]1O	0.78 (≈ 0.469 µM)	0.39 (≈ 0.235 µM)	> 25	1.56 (≈ 0.938 µM)	3.13 (≈ 1.88 µM)	> 25
CCCCCCN[C@@]1(C)C[C@H](O[C@H]2[C@H](Oc3c4cc5cc3Oc3ccc(cc3Cl)[C@@H](O[C@H]3C[C@](C)(N)[C@H](O)[C@H](C)O3)[C@@H]3NC(=O)[C@H](NC(=O)[C@@H]5NC(=O)[C@H](CC(N)=O)NC(=O)[C@H](NC(=O)[C@@H](CC(C)C)NC)[C@H](O)c5ccc(c(Cl)c5)O4)c4ccc(O)c(c4)-c4c(O)cc(O)cc4[C@H](C(=O)O)NC3=O)O[C@H](CO)[C@@H](O)[C@@H]2O)O[C@@H](C)[C@H]1O	1.56 (≈ 0.93 µM)	0.78 (≈ 0.465 µM)	> 25	1.56 (≈ 0.93 µM)	3.13 (≈ 1.87 µM)	> 25
CCCCCCCN[C@@]1(C)C[C@H](O[C@H]2[C@H](Oc3c4cc5cc3Oc3ccc(cc3Cl)[C@@H](O[C@H]3C[C@](C)(N)[C@H](O)[C@H](C)O3)[C@@H]3NC(=O)[C@H](NC(=O)[C@@H]5NC(=O)[C@H](CC(N)=O)NC(=O)[C@H](NC(=O)[C@@H](CC(C)C)NC)[C@H](O)c5ccc(c(Cl)c5)O4)c4ccc(O)c(c4)-c4c(O)cc(O)cc4[C@H](C(=O)O)NC3=O)O[C@H](CO)[C@@H](O)[C@@H]2O)O[C@@H](C)[C@H]1O	1.56 (≈ 0.923 µM)	0.78 (≈ 0.461 µM)	> 25	1.56 (≈ 0.923 µM)	1.56 (≈ 0.923 µM)	> 25
